Test results as given in US20250353831A1, “NOVEL HETEROBICYCLIC COMPOUND FOR INHIBITING YAP-TEAD INTERACTION AND PHARMACEUTICAL COMPOSITION COMPRISING SAME” (priority 2022, published 2025).

Key:
TEAD = TEAD reporter activity inhibition test (luciferase reporter in MCF7 cell line); format: cell-based; details: Homo sapiens; MCF7 TEAD (GTIIC) firefly luciferase reporter cell line, 24 hours, ONE-Glo luminescence; read-out: IC50 on TEAD transcription activity
Procedure: The ability of the synthetic compounds to inhibit transcription of a target gene by TEAD was measured. This evaluation method was a method of measuring transcriptional activity of TEAD by measuring luminescence intensity of luciferase expressed in the case where TEAD binds to a target gene and activates transcription thereof, by using MCF7 cell line (BPS Bioscienc, Inc., USA) constructed by introducing firefly luciferase reporter gene into GTIIC (5′-ACATTCCA-3′), which is a specific binding structure of TEAD. The cell line was cultured in a MEM medium supplemented with 10% FBS, 1% Penicillin/Streptomycin, 1% non-essential amino acids, 10 μg/ml insulin, and 400 μg/ml Geneticin. In the test of inhibiting the TEAD reporter activity, Geneticin was excluded. The cells were aliquoted into a white 96-well plate at a density of 4×10^4 cells/100 μl and cultured for 6 hours. 50 μl of the test compound diluted to 3× concentration was mixed with each well. After culturing the cell line for 24 hours, signals of luciferase were measured by luminescence according to manufacturer's protocols by using ONE-Glo luciferase assay system (Promega, E6120). A 50% inhibitory concentration (IC50) on TEAD transcription activity was calculated by using GraphPad Prism 9.
An IC50 value less than 100 nM was expressed as A, an IC50 value not less than 100 nM but less than 500 nM was expressed as B, and an IC50 value not less than 500 nM was expressed as C.

NCI-H226 cells = experiment: Cell growth inhibition test (SRB) in NCI-H226 cells; format: cell-based; details: Homo sapiens, 144 h, NCI-H226 NF2 gene-deficient mesothelioma cancer cell line, 6 days
Procedure: The ability of the synthetic compounds to inhibit the growth of NCI-H226 cells was identified. NCI-H226, which is an NF2 gene-deficient mesothelioma cancer cell line, was cultured in a RPMI 1640 medium supplemented with 10% FBS and 1% Penicillin/Streptomycin. The cultured cells were aliquoted into a 96-well plate at a density of 0.7×10^3 cells/100 μl and cultured for 24 hours, and then 100 μl of a test compound diluted to 2× concentration was mixed with each well and cultured for 6 days. SRB test method was used to measure cell growth inhibition, and a 50% inhibitory concentration (GI50) on cell growth by the compound was calculated by using GraphPad Prism 9.
A GI50value less than 100 nM was expressed as A and a GI50 value not less than 100 nM was expressed as B.

SMILES	IC50 (TEAD) [nM]	GI50 (NCI-H226 cells) [nM]
C=C(F)C(=O)Nc1ccc2c(c1)c(-c1cn(C)cn1)cn2-c1ccc(C(F)(F)F)cc1 [Synthetic compound 6, 2-fluoro-N-(3-(1-methyl-1H-imidazol-4-yl)-1-(4-(trifluoromethyl)phenyl)-1H-indol-5-yl) acrylamide]	100 to 500	
C=CC(=O)Nc1ccc2c(c1)c(-c1ccccc1F)cn2-c1ccc(C(F)(F)F)cc1 [Synthetic compound 5, N-(3-(2-fluorophenyl)-1-(4-(trifluoromethyl)phenyl)-1H-indol-5-yl)acrylamide]	< 100	< 100
C=CC(=O)Nc1cnc2c(c1)c(-c1cn(C3CC3)cn1)cn2-c1ccc(C(F)(F)F)cc1 [Synthetic compound 8, N-(3-(1-cyclopropyl-1H-imidazol-4-yl)-1-(4-(trifluoromethyl)phenyl)-1H-pyrrolo[2,3-b]pyridin-5-yl)acrylamide]	< 100	< 100
C=CC(=O)Nc1cc2c(-c3cn(C)cn3)cn(-c3ccc(C(F)(F)F)cc3)c2cc1Cl [Synthetic compound 10, N-(6-chloro-3-(1-methyl-1H-imidazol-4-yl)-1-(4-(trifluoromethyl)phenyl)-1H-indol-5-yl)acrylamide]	100 to 500	
C=CC(=O)Nc1ccc2c(c1)c(-c1ccco1)cn2-c1ccc(C(F)(F)F)cc1 [Synthetic compound 3, N-(3-(furan-2-yl)-1-(4-(trifluoromethyl)phenyl)-1H-indol-5-yl)acrylamide]	< 100	< 100
C=CC(=O)Nc1ccc2c(c1)c(-c1cn(C)cn1)cn2-c1ccc(C(F)(F)F)cc1 [Synthetic compound 9, N-(3-(1-methyl-1H-imidazol-4-yl)-1-(4-(trifluoromethyl)phenyl)-1pyrrolo[2,3-b]pyridin-5-yl)acrylamide]	< 100	< 100
C=CC(=O)Nc1ccc2c(c1)c(-c1cn(C3CC3)cn1)cn2-c1ccc(C(F)(F)F)cc1 [Synthetic compound 2, N-(3-(1-cyclopropyl-1H-imidazol-4-yl)-1-(4-(trifluoromethyl)phenyl)-1H-indol-5-yl) acrylamide]	< 100	< 100
C=CC(=O)Nc1ccc2c(c1)c(-c1cn(CCOC)cn1)cn2-c1ccc(C(F)(F)F)cc1 [Synthetic compound 7, N-(3-(1-(2-methoxyethyl)-1H-imidazol-4-yl)-1-(4-(trifluoromethyl)phenyl)-1H-indol-5-yl)acrylamide]	< 100	< 100
C=CC(=O)Nc1ccc2c(c1)c(-c1cn(C3CCC3)cn1)cn2-c1ccc(C(F)(F)F)cc1 [Synthetic compound 4, N-(3-(1-cyclobutyl-1H-imidazol-4-yl)-1-(4-(trifluoromethyl)phenyl)-1H-indol-5-yl)acrylamide]	< 100	< 100
